Target: T1, LPAAT-β (Homo sapiens, UniProt O15120)
T1 construct: the full-length human LPAAT-β cDNA was amplified by PCR; poly-histidine tag (from pFastBac HTc vector) (N); made in house; host or cells: Sf9 insect cells (baculovirus); membrane fraction used
T1 sequence (O15120 24-278): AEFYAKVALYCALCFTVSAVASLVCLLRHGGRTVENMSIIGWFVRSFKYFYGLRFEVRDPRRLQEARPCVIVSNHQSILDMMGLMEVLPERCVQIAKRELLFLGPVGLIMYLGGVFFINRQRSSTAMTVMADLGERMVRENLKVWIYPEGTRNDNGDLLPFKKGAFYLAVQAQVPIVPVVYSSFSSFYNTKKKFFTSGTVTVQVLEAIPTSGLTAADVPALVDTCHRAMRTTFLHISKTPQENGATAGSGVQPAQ
Assay: LPAAT-β cell-free assay (colorimetric primary screen, radiometric/fluorescent TLC secondary assay)
Assay type: biochemical
Conditions: Sf9 cell membrane overexpressing LPAAT-β
Description: A. Production of Recombinant LPAAT-β for Assays
For the construction of Baculovirus expression vectors, the full-length human LPAAT-β cDNA was amplified by PCR from the DNA template pCE9.LPAAT-β (West et al., DNA Cell Biol. 16:691-701 (1997)) using the primers 5′-[…] […] […] […]-3′ (olpb1F; SEQ ID NO:1) and 5′-[…] […] […]-3′ (olpb1R; SEQ ID NO:2). The ˜870 bp fragment generated was reamplified by PCR using the primers 5′[…] […] […] […] ATC-3′ (olpb2F; SEQ ID NO:3) and 5′-[…] […] […]-3′ (olpb1R; SEQ ID NO:2). The ˜890 bp fragment generated was then cleaved with Sal I and Xba I for insertion into pFastBac™ HTc vector (Life Technologies, Gaithersberg, Md.) between the Sal I and Xba I sites for the generation of the plasmid pFB.LPAAT-β. This plasmid was then transformed into E. coli DH10Bac™ (Life Technologies, Gaithersberg, Md.) for the generation of recombinant Bacmid DNA for transfection in HighFive (Invitrogen, San Diego, Calif.) or SF9 insect cells for the production of recombinant Baculovirus stocks using the protocol described in the Bac-to-Bac® Baculovirus Expression System (Life Technologies, Gaithersberg, Md.), a eukaryotic expression system for generating recombinant baculovirus through site-specific transposition in E. coli. Viral stocks harvested from the transfected cells can then be used to infect fresh insect cells for the subsequence expression of LPAAT-β fusion protein with a poly-histidine tag and a myc-epitope near its N-terminus. The membrane fraction from these Sf9 cells would be the source of LPAAT enzyme.
B. Preparation of Cell Membranes from Sf9 Cells
For the preparation of membranes from Sf9 Cells, all steps are performed on ice or at 4° C. Sf9 cell pellets (˜10^8 cells) were thawed and resuspended in 1-2 ml of buffer A (20 mM Hepes, pH 7.5, 1 mM DTT, 1 mM EDTA, 20% w/v glycerol, 1 mM Benzamidine, 1 μg/ml soybean trypsin inhibitor (SBTI), 1 μg/ml pepstatin A) w/o DTT but with 1 mM Pefabloc. The cells were lysed by sonication using a Branson Sonifier at output=2, duty cycle=2, 10 pulses each at 10s. with the tip of small sonicator probe submerged but not touching the walls. DTT was then added to 1 mM from a 1 M stock. The samples were centrifuged at 1500 rpm for 5 min. The low speed supernatant was saved and centrifuged (TLA 100.3 rotor, polycarbonate tubes, 2 ml/tube or 1.5 ml/tube minimum) at 100000×g for 1 hr. The high speed pellet was resuspend in Buffer A with a probe sonicator (10 pulses @ output #2 and duty cycle 20%) as a source of LPAAT enzyme.
C. Assay of LPAAT-β Activity
LPAAT-β catalyzes the transfer of an acyl group from a donor such as acyl-CoA to LPA. The transfer of the acyl group from acyl-CoA to LPA leads to the release of free CoA, which can be reacted with the thiol reagent, 5,5′-dithiobis(2-nitrobenzoic acid) (DTNB). The reaction between DTNB and the free sulfhydryl group from CoA generates a yellow-colored product, 3-carboxylato-4-nitrothiophenolate (CNP), that absorbs at 413 nm. LPAAT-β derived from Sf9 cell membrane overexpressing LPAAT-β were resuspended in HEPES saline buffer (20 mM HEPES pH 7.5, 150 mM NaCl), 1 mg/ml BSA and 72 μl aliquots were distributed into 96-well microtiter plates. 8 μl of compound of interest at 200 μM dissolved in 100% DMSO was added into each well. 20 μl of 1 mM 18:1-CoA and 1 mM sn-1-18:1 lysoPA was then added to each well to initiate the reaction and allowed to run at room temperature for 25 min. 100 μl of 1 mM DTNB in 100% ethanol was then added to each well to quench the reaction and for color development. The absorbance at 405 nm, measured using a spectrophotometer plate reader, is proportional to the activity of LPAAT-β in the sample. This colorimetric assay was used for the high throughput screening of LPAAT inhibitors.

Structure (SMILES) | IC50 [nM]
Cc1ccc(Cl)cc1-c1nc(N)nc(Nc2ccc(COC(=O)CN)cc2)n1 [Example 71, Amino-acetic acid 4-[4-amino-6-(5-chloro-2-methyl-phenyl)-[1,3,5]triazin-2ylamino]-benzyl ester] | 480
Cc1ccc(Cl)cc1-c1nc(N)nc(Nc2ccc(COC(=O)[C@@H](N)CC(=O)O)cc2)n1 [Example 72, (S)-2-Amino-succinic acid 1-{4-[4-amino-6-(5-chloro-2-methyl-phenyl)-[1,3,5]triazin-2-ylamino]-benzyl}ester] | 1400
Cc1ccc(Cl)cc1-c1nc(N)nc(Nc2ccc(COC(=O)C[C@H](N)C(=O)O)cc2)n1 [Example 73, (S)-2-Amino-succinic acid 4-{4-[4-amino-6-(5-chloro-2-methyl-phenyl)-[1,3,5]triazin-2-ylamino]-benzyl}ester] | 2100
CNc1nc(Nc2ccc(CO)cc2)nc(-c2cc(Cl)ccc2C)n1 [Example 74, {4-[4-(5-Chloro-2-methyl-phenyl)-6-methylamino-[1,3,5]-triazin-2-ylamino]-phenyl}-methanol] | 680
Cc1ccc(Cl)cc1-c1nc(N)nc(Nc2ccc(COC(=O)[C@@H](N)CCCNC(=N)N)cc2)n1 [Example 75, (S)-2-Amino-5-guanidino-pentanoic acid 4-[4-amino-6-(5-chloro-2-methyl-phenyl)-[1,3,5]triazin-2-ylamino]-benzyl ester] | 970
Cc1ccc(Cl)cc1-c1nc(N)nc(Nc2ccc(COC(=O)[C@H](C)N)cc2)n1 [Example 77, 2-Amino-propionic acid 4-[4-amino-6-(5-chloro-2-methyl-phenyl)-[1,3,5]-triazin-2-ylamino]-benzyl ester] | 1300
COCc1ccc(Nc2nc(N)nc(-c3cc(Cl)ccc3C)n2)cc1 [Example 78, 6-(5-Chloro-2-methyl-phenyl)-N-(4-methoxy-methyl-phenyl)-[1,3,5]triazine-2,4-diamine] | 640
COc1ccc(Cl)cc1-c1nc(N)nc(Nc2ccc(C)cc2)n1 [Example 79, 6-(5-Chloro-2-methoxy-phenyl)-N-p-tolyl-[1,3,5]triazine-2,4-diamine] | 230
Nc1nc(Nc2ccc(Cl)cc2)nc(-c2cc(Cl)ccc2Br)n1 [Example 80, 6-(2-Bromo-5-chloro-phenyl)-N-(4-chloro-phenyl)-[1,3,5]triazine-2,4-diamine] | 140
Nc1nc(Nc2ccc(Cl)cc2)nc(-c2cc(C(F)(F)F)ccc2Cl)n1 [Example 81, N-(4-Chloro-phenyl)-6-(2-chloro-5-trifluoromethyl-phenyl)-[1,3,5]triazine-2,4-diamine] | 100
Nc1nc(Nc2ccc3c(c2)OCO3)nc(-c2cc(Cl)ccc2Cl)n1 [Example 82, N-Benzo[1.3]dioxol-5-yl-6-(2,5-dichloro-phenyl)-[1,3,5]triazine-2,4-diamine] | 300
Cc1ccc(Cl)c(-c2nc(N)nc(Nc3ccc(Cl)cc3)n2)c1 [Example 83, 6-(2-chloro-5-methyl-phenyl)-N-(4-chloro-phenyl)-[1,3,5]triazine-2,4-diamine] | 180
Nc1nc(Nc2ccc(Cl)cc2)nc(-c2cc(Cl)ccc2F)n1 [Example 85, 6-(5-Chloro-2-fluoro-phenyl)-N-(4-chloro-phenyl)-[1,3,5]triazine-2,4-diamine] | 70
Cc1ccc(Br)c(-c2nc(N)nc(Nc3ccc(Cl)cc3)n2)c1 [Example 86, 6-(2-bromo-5-methyl-phenyl)-N-(4-chloro-phenyl)-[1,3,5]triazine-2,4-diamine] | 450
Cc1ccc(Cl)cc1-c1nc(N)nc(Nc2ccc(C=O)cc2)n1 [Example 87, 4-[4-Amino-6-(5-chloro-2-methyl-phenyl)-[1,3,5]triazin-2-ylamino]-benzaldehyde] | 110
Cc1ccc(Cl)cc1-c1nc(N)nc(Nc2ccc(CCl)cc2)n1 [Example 88, N-(4-Chloromethyl-phenyl)-6-(5-chloro-2-methyl-phenyl)-[1,3,5]triazine-2,4-diamine] | 180
N#Cc1ccc(Nc2nc(N)nc(-c3cc(Cl)ccc3Cl)n2)cc1 [Example 89, 4-[4-Amino-6-(2,5-dichlorophenyl)-[1,3,5]triazin-2-ylamino]-benzonitrile] | 100
Nc1nc(Nc2cccc(Cl)c2)nc(-c2cc(Cl)ccc2Cl)n1 [Example 90, N-(3-chlorophenyl)-6-(2,5-dichlorophenyl)-[1,3,5]triazine-2,4-diamine] | 4800
